Test results taken from patent US8921405B2, “Compounds” (Orexo AB, priority 2009, dated 2014).

biological target: T1, recombinant human mPGES-1 (Homo sapiens, UniProt O14684); assay: mPGES-1 HTRF assay (inhibition of PGE2 formation from PGH2); assay type: biochemical; conditions: compound concentration of 10 μM, HTRF assay; read-out: % inhibition
T1 construct: made in house; host or cells: Rosetta E. coli (membrane/microsome fraction)
T1 sequence (O14684 1-152): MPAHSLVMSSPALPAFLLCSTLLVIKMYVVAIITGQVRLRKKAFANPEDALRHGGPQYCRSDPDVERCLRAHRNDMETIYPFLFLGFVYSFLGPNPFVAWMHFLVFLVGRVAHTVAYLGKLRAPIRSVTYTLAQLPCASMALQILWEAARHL
Protocol: The basis of the assay used is to measure the inhibition of microsomal prostaglandin E2 synthase-1 (mPGES-1) dependent prostaglandin (PG) E2 formation from PGH2 by different compounds. Thus, the formation of PGE2 is used as signal and a lowering of this signal can be interpreted as inhibition of mPGES-1. […] Microsomes from Rosetta E. coli bacteria expressing recombinant human mPGES-1 can be derived as described below: Inoculate 5 ml LB with Amp and Chloro with bacteria from freeze culture. Incubate over night at 37° C. with 200 rpm. Thereafter, inoculate 500-800 ml LB containing Amp and Chloro with the 5 ml on culture and grow to OD640 of 0.6-0.8. Chill the culture to +4° C. before induction. Induce the culture with IPTG at a final concentration of 400 μM. Express the protein at room temp 18-23° C. with 200 rpm shaking over night. The following steps can be performed on the following day: • 1. Spin down the cells in 250 ml centrifuge flasks for 15 min at 7000 rpm • 2. Dissolve the pellet from 250 ml culture in 12.5 ml homogenization buffer • 3. Disintegrate the cells by sonication, 4×10 seconds at 35% amplitude • 4. Add 2.5 ml MgCl2 (100 mM) and DNase 12.5 μl (0.8 mg/ml) and incubate on ice for 30 min • 5. Spin down the bacteria debris and save the supernatant, 7000 rpm for 15 min • 6. Isolate the protein containing membranes in the supernatant by ultracentrifugation 45000×g for 1 hour. • 7. Discard the supernatant and dissolve the pellet in 20 mM KPi buffer and aliquot the enzyme and store aliquots at −80° C. Before each experiment is performed an aliquot of the enzyme is thawed and it can then be dissolved in 0.1 M KPi pH 7.4 buffer containing 2.5 mM GSH. 50 μl of this enzyme solution is subsequently dispensed in a 384-well plate at room temperature. 0.5 μl of the inhibitor dissolved in DMSO is thereafter added to each well and incubated for 25 minutes at room temperature. Subsequently, 2 μl of PGH2 dissolved in an appropriate solvent is added to each well and after one minute at room temperature, the acidified stop solution containing FeCl2 is added. 4 μl of the total volume is transferred to a separate plate and diluted 750-fold in two separate steps before quantification of PGE2. In order to quantitate the amount of PGE2 that has been formed, a homogenous time resolved fluorescent (HTRF) detection of PGE2 can be performed by the use of a commercially available kit from CisBio essentially according to the manufacturer's protocol. […] The sealing film is thereafter removed from the NC wells. • 5 μl Eu3+-cryptate labeled anti-PGE2 can now be added to rows 1 to 24 by using a Multidrop. • The plate can now be covered with sealing film. • The plate can now be centrifuge at 1200 rpm for 1 minute and place at 4° C. overnight. After the over night incubation the fluorescence is measured by the use of an appropriate microplate reader. […] The extent of the specific HTRF is measured as a ratio of the emission intensity at 665 nm vs. that at 620 nm. A standard curve using synthetic PGE2 is used to quantify the amount of PGE2 in unknown samples. The degree of inhibition can be calculated as percent inhibition by dividing the amount of PGE2 formed in unknown samples by the amount of PGE2 formed in control samples.

First: CN(C1CCCC1)S(=O)(=O)c1ccc2c(c1)nc(Nc1cc(CNC(=O)C3(C)CCCCC3)ccc1Cl)n2C [Example 26, N-{4-Chloro-3-[5-(N-cyclopentyl-N-methylsulfamoyl)-1-methyl-2-benzimidazolylamino]benzyl}-1-methylcyclohexylamide]
Second: Cn1c(Nc2cc(CNC(=O)C3(C)CCCC3)ccc2Cl)nc2cc(C(=O)NCC3CCCCC3)ccc21 [Example 31, 2-{2-Chloro-5-[(1-methylcyclopentylamido)methyl]phenylamino}-N-cyclohexylmethyl-1-methylbenzimidazole-5-carboxamide]
The inhibition at 10 µM of the first is higher: 100% for the first, 99% for the second.

Going from `Cn1c(Nc2cc(CNC(=O)c3c(F)cccc3Cl)ccc2Cl)nc2cc(C(=O)NCC3CCCCC3)ccc21` [Example 27, 2-{2-Chloro-5-[(2-chloro-6-fluorobenzamido)methyl]phenylamino}-N-cyclohexylmethyl-1-methylbenzimidazole-5-carboxamide] to `CC(=O)NCc1ccc(Cl)c(Nc2nc3cc(C(=O)NCC4CCCCC4)ccc3n2C)c1` [Example 32, 2-[5-(Acetamidomethyl)-2-chlorophenylamino]-N-cyclohexylmethyl-1-methylbenzimidazole-5-carboxamide], the inhibition at 10 µM falls from 100% to 98%.

Compared with `Cn1c(Nc2cc(CNC(=O)C3CCCO3)ccc2Cl)nc2cc(C(=O)NCC3CCCCC3)ccc21` (stereo not drawn) [Example 28, 2-{2-Chloro-5-[(2-tetrahydrofurylamido)methyl]phenylamino}-N-cyclohexylmethyl-1-methylbenzimidazole-5-carboxamide], `Cn1c(Nc2cc(CNC(=O)OC(C)(C)C)ccc2Cl)nc2cc(C(=O)NCC3CCCCC3)ccc21` [Example 33] is lower in inhibition at 10 µM: 100% for the first, 93% for the second.

Compared with `Cn1c(Nc2cc(CNC(=O)C3(C(F)(F)F)CC3)ccc2Cl)nc2cc(C(=O)NCC3CCCCC3)ccc21` [Example 30, 2-{2-chloro-5-[(1-trifluoromethylcyclopropylamido)methyl]phenyl-amino}-N-cyclohexylmethyl-1-methylbenzimidazole-5-carboxamide], `Cn1c(Nc2cc(CNC(=O)C3(C(F)(F)F)CC3)ccc2Cl)nc2cc(C(=O)Nc3ccc(Br)cc3)ccc21` [Example 37, N-(4-Bromophenyl)-2-{2-chloro-5-[(1-trifluoromethylcyclopropylamido)methyl]phenylamino}-1-methylbenzimidazole-5-carboxamide] is higher in inhibition at 10 µM: 98% for the first, 100% for the second.

`Cn1c(Nc2cc(CNC(=O)OC(C)(C)C)ccc2Cl)nc2cc(C(=O)Nc3ccc(Br)cc3)ccc21` [Example 34, tert-Butyl 3-[5-(4-bromophenylcarbamoyl)-1-methyl-2-benzimidazolylamino]-4-chlorobenzylcarbamate] and `CC(=O)NCc1ccc(Cl)c(Nc2nc3cc(C(=O)Nc4ccc(Br)cc4)ccc3n2C)c1` [Example 43, 2-[5-(Acetamidomethyl)-2-chlorophenylamino]-N-(4-bromophenyl)-1-methylbenzimidazole-5-carboxamide] are the same in inhibition at 10 µM: 100% for the first, 100% for the second.

`Cn1c(Nc2cc(CNC(=O)C3CCC(F)(F)CC3)ccc2Cl)nc2cc(C(=O)Nc3ccc(Br)cc3)ccc21` [Example 35, N-(4-Bromophenyl)-2-{2-chloro-5-[(4,4-difluorocyclohexylamido)-methyl]phenylamino]-1-methylbenzimidazole-5-carboxamide] and `Cn1c(Nc2cc(CNC(=O)C3(C)CCCC3)ccc2Cl)nc2cc(C(=O)Nc3ccc(Br)cc3)ccc21` [Example 41, N-(4-Bromophenyl)-2-{2-chloro-5-[(1-methylcyclopentylamido)methyl]-phenylamino}-1-methylbenzimidazole-5-carboxamide] are the same in inhibition at 10 µM: 100% for the first, 100% for the second.

`Cn1c(Nc2cc(CNC(=O)c3c(F)cccc3Cl)ccc2Cl)nc2cc(C(=O)Nc3ccc(Br)cc3)ccc21` [Example 36, N-(4-Bromophenyl)-2-{2-chloro-5-[(2-chloro-6-fluorobenzamido)methyl]phenylamino}-1-methylbenzimidazole-5-carboxamide] and `Cn1c(Nc2cc(CNC(=O)[C@@H]3C[C@H]3c3ccccc3)ccc2Cl)nc2cc(C(=O)Nc3ccc(Br)cc3)ccc21` [Example 39, N-(4-Bromophenyl)-2-{2-chloro-5-[(trans-2-phenylcyclopropylamido)-methyl]phenylamino}-1-methylbenzimidazole-5-carboxamide] are the same in inhibition at 10 µM: 100% for the first, 100% for the second.

`Cn1c(Nc2cc(CNC(=O)C3(C#N)CC3)ccc2Cl)nc2cc(C(=O)Nc3ccc(Br)cc3)ccc21` [Example 38, N-(4-Bromophenyl)-2-{2-chloro-5-[(1-cyanocyclopropylamido)methyl]-phenylamino}-1-methylbenzimidazole-5-carboxamide] and `Cn1c(Nc2cc(CNC(=O)C3(C#N)CCCC3)ccc2Cl)nc2cc(C(=O)Nc3ccc(Br)cc3)ccc21` [Example 42, N-(4-Bromophenyl)-2-{2-chloro-5-[(1-cyanocyclopentylamido)methyl]-phenylamino}-1-methylbenzimidazole-5-carboxamide] are the same in inhibition at 10 µM: 100% for the first, 100% for the second.

First: Cn1c(Nc2cc(CNC(=O)C3(C)COC3)ccc2Cl)nc2cc(C(=O)Nc3ccc(Br)cc3)ccc21 [Example 40, N-(4-Bromophenyl)-2-{2-chloro-5-[(3-methyl-3-oxetanylamido)methyl]-phenylamino}-1-methylbenzimidazole-5-carboxamide]
Second: Cn1c(Nc2cc(CNC(=O)C3(C)CCCO3)ccc2Cl)nc2cc(C(=O)Nc3ccc(Br)cc3)ccc21 (stereo not drawn) [Example 49, N-(4-Bromophenyl)-2-{2-chloro-5-[(2-methyl-2-tetrahydrofurylamido)-methyl]phenylamino}-1-methylbenzimidazole-5-carboxamide]
The inhibition at 10 µM of the first is lower: 98% for the first, 100% for the second.

`Cn1c(Nc2cc(CNS(=O)(=O)c3cccs3)ccc2Cl)nc2cc(C(=O)Nc3ccc(Br)cc3)ccc21` [Example 44, N-(4-Bromophenyl)-2-{2-chloro-5-[(2-thienylsulfonamido)methyl]phenylamino}-1-methylbenzimidazole-5-carboxamide] and `Cn1c(Nc2cc(CNS(=O)(=O)C3CC3)ccc2Cl)nc2cc(C(=O)Nc3ccc(Br)cc3)ccc21` [Example 45, N-(4-Bromophenyl)-2-{2-chloro-5-[(cyclopropylsulfonamido)methyl]-phenylamino}-1-methylbenzimidazole-5-carboxamide] are the same in inhibition at 10 µM: 100% for the first, 100% for the second.

`CCC1(C(=O)NCc2ccc(Cl)c(Nc3nc4cc(C(=O)Nc5ccc(Br)cc5)ccc4n3C)c2)CCCC1` [Example 46, N-(4-Bromophenyl)-2-{2-chloro-5-[(1-ethylcyclopentylamido)methyl]-phenylamino}-1-methylbenzimidazole-5-carboxamide] and `Cn1c(Nc2cc(CNC(=O)C3(CC4CC4)CCCC3)ccc2Cl)nc2cc(C(=O)Nc3ccc(Br)cc3)ccc21` [Example 48, N-(4-Bromophenyl)-2-{2-chloro-5-[(1-cyclopropylmethylcyclopentyl-amido)methyl]phenylamino}-1-methylbenzimidazole-5-carboxamide] are the same in inhibition at 10 µM: 100% for the first, 100% for the second.

`CSC1(C(=O)NCc2ccc(Cl)c(Nc3nc4cc(C(=O)Nc5ccc(Br)cc5)ccc4n3C)c2)CCCC1` [Example 47, N-(4-Bromophenyl)-2-{2-chloro-5-[(1-methylthiocyclopentylamido)-methyl]phenylamino}-1-methylbenzimidazole-5-carboxamide] and `Cn1c(Nc2cc(CNC(=O)C3(CN)CC3)ccc2Cl)nc2cc(C(=O)Nc3ccc(Br)cc3)ccc21` [Example 50, 2-(5-{[1-(Aminomethyl)cyclopropylamido]methyl}-2-chlorophenylamino)-N-(4-bromophenyl)-1-methylbenzimidazole-5-carboxamide] are the same in inhibition at 10 µM: 100% for the first, 100% for the second.
